# Source: patent US5410024A, “Human cancer inhibitory pentapeptide amides” (Arizona Board of Regents acting on behalf of Arizona State …, priority 1993, dated 1995)
# How the values were obtained:
# [1] = system: LOX Human Melanoma Xenograph; assay: LOX Human Melanoma Xenograph (Nude Mouse); assay type: in vivo
# KM20L2 = assay: NCI human tumor cell line screen, Colon KM20L2; assay type: cell-based; conditions: for GI50, minipanel cell line E: minipanel comparison
# From the text: (§1) Current research in the control of cancer in the United States is coordinated by the National Cancer Institute (NCI). To determine whether a substance has anti-cancer properties, the NCI has established a systematic protocol. […] The protocol, and the established statistical means for analyzing the results obtained by the standardized testing are fully described in the literature. […] Both of these references are incorporated herein by this reference thereto.
# [2] = system: OVCAR-3 Human Ovary Xenograph; assay: OVCAR-3 Human Ovary Xenograph, Nude Mouse; assay type: in vivo; conditions: OVCAR-3 xenograph, 40 μg/kg
# Human Mammary Xenograph = assay: Human Mammary Xenograph, Nude Mouse; assay type: in vivo; conditions: 26 μg/kg
# A498 = assay: NCI human tumor cell line screen, Renal A498; assay type: cell-based; conditions: for GI50, minipanel cell line C: minipanel comparison, column C (key not visible; values match A498)
# From the text: as §1
# B16 Melanoma = assay: Murine in vivo system, B16 Melanoma
# NCI-H460 = assay: NCI human tumor cell line screen, Lung-NSC NCI-H460; assay type: cell-based; conditions: for GI50, minipanel cell line D: minipanel comparison, column D (key not visible; values match NCI-H460)
# From the text: as §1
# [3] = system: MX-1 Human Mammary Xenograft; assay: MX-1 Human Mammary Xenograft (Tumor Regression); assay type: in vivo, Murine
# SF-295 = assay: NCI human tumor cell line screen, CNS SF-295; assay type: cell-based; conditions: for GI50, minipanel cell line B: minipanel comparison, column B (key not visible; values match SF-295)
# From the text: as §1
# [4] = system: P388 Lymphocytic Leukemia; assay: Murine in vivo system, P388 Lymphocytic Leukemia
# OVCAR-3 = assay: NCI human tumor cell line screen, Ovarian OVCAR-3; assay type: cell-based; conditions: for GI50, minipanel cell line A: minipanel comparison, column A (key not visible; values match OVCAR-3)
# From the text: as §1
# [5] = system: L1210 Lymphocytic Leukemia; assay: Murine in vivo system, L1210 Lymphocytic Leukemia
# M5076 Ovary Sarcoma = assay: Murine in vivo system, M5076 Ovary Sarcoma
# SK-MEL-5 = assay: NCI human tumor cell line screen, Melanoma SK-MEL-5; assay type: cell-based; conditions: for GI50, minipanel cell line F: minipanel comparison, column F (key not visible; values match SK-MEL-5)
# From the text: as §1
# human tumor cell lines = assay: Inhibition of human tumor cell lines (general statements); assay type: cell-based; conditions: for at least six cell lines
# From the text: Current research in the control of cancer in the United States is coordinated by the National Cancer Institute (NCI). To determine whether a substance has anti-cancer properties, the NCI has established a systematic protocol. This protocol, which involves the testing of a substance against a standard cell line panel containing 60 human tumor cell lines, has been verified and is accepted in scientific circles. The protocol, and the established statistical means for analyzing the results obtained by the standardized testing are fully described in the literature. See: Boyd, Dr. Michael R., Principles & Practice of Oncology, PPO Updates, Volume 3, Number 10, October 1989, for an in depth description of the testing protocol; and Paull, K. D., "Display and Analysis of Patterns of Differential Activity of Drugs Against Human Tumor Cell Lines; Development of Mean Graph and COMPARE Algorithm", Journal of the National Cancer Institute Reports, Vol. 81, No. 14, Page 1088, Jul. 14, 1989 for a description of the methods of statistical analysis. Both of these references are incorporated herein by this reference thereto.
# [6] = LOX in separate experiments, 9.0 μg/kg
# [7] = LOX in separate experiments, 26 μg/kg
# [8] = LOX in separate experiments, 43 μg/kg
substance,measurement,setting,value
Dolastatin 10,T/C,[1]; [6],138
same,cures,[1]; [6],17%
same,T/C,"[1]; LOX in separate experiments, 15 μg/kg",192
same,T/C,[1]; [7],181
same,cures,[1]; [7],33%
same,T/C,[1]; [8],340
same,cures,[1]; [8],50%
same,T/C,"[1]; LOX, 3.25 μg/kg",170
same,cures,"[1]; LOX, 3.25 μg/kg",17%
same,cures,"[1]; LOX, 6.5 μg/kg",33%
same,cures,"[1]; LOX, 13 μg/kg",50%
same,cures,"[1]; LOX, 26 μg/kg",67%
same,T/C,"[1]; LOX, 52 μg/kg",toxic
same,"GI50, minipanel cell line E",KM20L2,0.0047 ng/mL
same,T/C,[2],300
same,T/C,Human Mammary Xenograph,Toxic
same,"GI50, minipanel cell line C",A498,0.026 ng/mL
same,T/C,"B16 Melanoma; B16, 1.44 μg/kg",142
same,T/C,"B16 Melanoma; B16, 3.4 μg/kg",171
same,T/C,"B16 Melanoma; B16, 4.0 μg/kg",205
same,T/C,"B16 Melanoma; B16, 6.67 μg/kg",182
same,T/C,"B16 Melanoma; B16, 11.11 μg/kg",238
same,cures,"B16 Melanoma; B16, 11.11 μg/kg",40%
same,"GI50, minipanel cell line D",NCI-H460,0.0034 ng/mL
same,T/C (Tumor Regression),"[3]; MX-1, 6.25 μg/kg",69
same,T/C (Tumor Regression),"[3]; MX-1, 13 μg/kg",61
same,T/C (Tumor Regression),"[3]; MX-1, 26 μg/kg",50
same,T/C (Tumor Regression),"[3]; MX-1, 52 μg/kg",14
same,"GI50, minipanel cell line B",SF-295,7.6e-05 ng/mL
same,cures,"[4]; P388, 3.25 μg/kg",17%
same,cures,"[4]; P388, 6.5 μg/kg",17%
same,T/C,"[4]; P388, 13.0 μg/kg",toxic
same,"GI50, minipanel cell line A",OVCAR-3,0.00095 ng/mL
same,T/C,"[5]; L1210, 1.63 μg/kg",120
same,T/C,"[5]; L1210, 3.25 μg/kg",139
same,T/C,"[5]; L1210, 6.5 μg/kg",135
same,T/C,"[5]; L1210, 13 μg/kg",152
same,T/C,"M5076 Ovary Sarcoma; M5076, 3.25 μg/kg",151
same,T/C,"M5076 Ovary Sarcoma; M5076, 6.5 μg/kg",142
same,T/C,"M5076 Ovary Sarcoma; M5076, 13 μg/kg",166
same,T/C,"M5076 Ovary Sarcoma; M5076, 26 μg/kg",toxic
same,"GI50, minipanel cell line F",SK-MEL-5,0.0074 ng/mL
"L-Dolavalyl-L-Valyl-N-Methyl-(S,S,R)-Dolaisoleucyl-(S,R,R)-Dolaproyl-L-Phenylalanineamide-N-(3-quinoline) [Compound 9g]",LC-50,KM20L2; Colon KM20L2,> 0.000001 µg/mL
same,TGI,KM20L2; Colon KM20L2,0.00023 ng/mL
same,"GI50, minipanel cell line E",KM20L2,3.9e-05 ng/mL
same,GI-50,A498; Renal A498,0.000000100 µg/mL
same,LC-50,A498; Renal A498,> 0.000001 µg/mL
same,TGI,A498; Renal A498,> 0.001 ng/mL
same,LC-50,NCI-H460; Lung-NSC NCI-H460,> 0.000001 µg/mL
same,TGI,NCI-H460; Lung-NSC NCI-H460,0.00012 ng/mL
same,"GI50, minipanel cell line D",NCI-H460,1.3e-05 ng/mL
same,LC-50,SF-295; CNS SF-295,> 0.000001 µg/mL
same,TGI,SF-295; CNS SF-295,0.00061 ng/mL
same,"GI50, minipanel cell line B",SF-295,4e-05 ng/mL
same,LC-50,OVCAR-3; Ovarian OVCAR-3,> 0.000001 µg/mL
same,TGI,OVCAR-3; Ovarian OVCAR-3,7.9e-05 ng/mL
same,"GI50, minipanel cell line A",OVCAR-3,4.6e-07 ng/mL
same,GI50,human tumor cell lines,less than 10^-7 μg/ml
same,LC-50,SK-MEL-5; Melanoma SK-MEL-5,> 0.000001 µg/mL
same,TGI,SK-MEL-5; Melanoma SK-MEL-5,> 0.001 ng/mL
same,"GI50, minipanel cell line F",SK-MEL-5,3e-06 ng/mL
"L-Dolavalyl-L-Valyl-N-Methyl-(S,S,R)-Dolaisoleucyl-(S,R,R)-Dolaproyl-L-Phenylalanineamide-N-(2-benzothiazole) [Compound 9e]",TGI,KM20L2; Colon KM20L2,0.0007 ng/mL
same,"GI50, minipanel cell line E",KM20L2,0.00026 ng/mL
same,TGI,A498; Renal A498,> 0.001 ng/mL
same,"GI50, minipanel cell line C",A498,0.00023 ng/mL
same,GI-50,NCI-H460; Lung-NSC NCI-H460,0.000000039 µg/mL
same,TGI,NCI-H460; Lung-NSC NCI-H460,0.00044 ng/mL
same,GI-50,SF-295; CNS SF-295,0.00000011 µg/mL
same,TGI,SF-295; CNS SF-295,0.00096 ng/mL
same,GI-50,OVCAR-3; Ovarian OVCAR-3,0.000000033 µg/mL
same,TGI,OVCAR-3; Ovarian OVCAR-3,0.00019 ng/mL
same,GI50,human tumor cell lines,less than 10^-7 μg/ml
same,GI-50,SK-MEL-5; Melanoma SK-MEL-5,0.000000030 µg/mL
same,TGI,SK-MEL-5; Melanoma SK-MEL-5,> 0.001 ng/mL
